Assay: Acid dissociation constant pKa of flux agent
Conditions: for pKa: dilute aqueous solution; for pKa1: first dissociation constant of a dicarboxylic acid
Procedure: The pKa can be determined by measuring an acid dissociation constant Ka=[H3O][B^−]/[BH] under the condition of a dilute aqueous solution of the carboxyl group-containing compound and using the equation of pKa=−log Ka. Here, BH represents a carboxyl group-containing compound, and B^− represents a conjugate base of the carboxyl group-containing compound. The pKa can be measured in such a manner that a hydrogen ion concentration is measured using a pH meter, and the pKa is calculated from the concentration of a relevant substance and the hydrogen ion concentration.

| SMILES | pKa | pKa1 |
| --- | --- | --- |
| O=C(O)C1CCCCC1C(=O)O (stereo not shown) | 4.4 | 4.4 |
| O=C(O)c1c(O)cccc1O [2,6-dihydroxybenzoic acid] | 1.2 |  |
| O=C(O)c1ccccc1[N+](=O)[O-] [2-nitrobenzoic acid] | 2.5 |  |

More lines, now with the values ahead:

| pKa | pKa1 | SMILES |
| --- | --- | --- |
| 3.5 |  | O=C(O)c1ccccc1-c1ccccc1 [2-phenylbenzoic acid] |
| 5 | 5.0 | O=C(O)CCCCCCCCCCC(=O)O [Dodecanedioic acid, dodecanedioic acid] |
| 4.5 | 4.5 | O=C(O)CCCCCCC(=O)O [Octanedioic acid, octanedioic acid] |
| 4.9 |  | CN(C)c1ccc(C(=O)O)cc1 [p-dimethylaminobenzoic acid] |

— US9368421B2, “Under-fill material and method for producing semiconductor device” (NITTO DENKO CORPORATION, priority 2011, dated 2016)
